Patent US10221163B2 (priority 2015, dated 2019)
pIC50: −log10 of the molar value. Where two headings read alike, the source gives them in different places.

Assays:
IMP-1 = IMP-1 (Serratia marcescens, UniProt P52699); assay: biochemical; assay type: biochemical; details: fluorescence assay, CCF2-FA substrate, 2 pM enzyme, 2 hours at 25° C.; read-out: IMP-1 IC50
Procedure, shortened: (§1)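 Class B activity is measured in the presence of compound by fluorescence with CCF2-FA after a 2-hour incubation at 25° C. IC50 is taken from a 4-parameter fit of semi-logarithmic dose-response data.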

NDM-1 = NDM-1 (Klebsiella pneumoniae, UniProt C7C422); assay: biochemical; assay type: biochemical; details: fluorescence assay, CCF2-FA substrate, 1 pM enzyme, 2 hours at 25° C.; read-out: NDM-1 IC50
Sequence of NDM-1 (C7C422 whole entry, looked up, species assumed): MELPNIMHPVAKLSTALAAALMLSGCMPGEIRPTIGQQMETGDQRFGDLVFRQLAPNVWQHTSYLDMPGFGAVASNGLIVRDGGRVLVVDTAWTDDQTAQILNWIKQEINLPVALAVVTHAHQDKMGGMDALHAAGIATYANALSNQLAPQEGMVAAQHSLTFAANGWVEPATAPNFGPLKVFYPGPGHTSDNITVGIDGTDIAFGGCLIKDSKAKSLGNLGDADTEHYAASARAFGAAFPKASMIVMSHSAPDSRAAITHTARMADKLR
Procedure, shortened: as §1

VIM-1 = VIM-1 (Pseudomonas aeruginosa (strain ATCC 15692 / DSM 22644 / CIP 104116 / JCM 14847 / LMG 12228 / 1C / PRS 101 / PAO1), UniProt A0A0F7KYQ8); assay: biochemical; details: CCF2-FA substrate, 30 pM enzyme, 2 hours at 25° C.
Procedure, shortened: as §1

[1] = test system: Escherichia coli expressing NDM-1 (CLB30005, CLB30016); assay type: cell-based; details: NDM-1 strain, with imipenem 1 μg/ml, 95% inhibition of growth
Procedure, shortened: (§2)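 Imipenem 1 μg/ml + inhibitor; MBL-expressing clinical strains in 1.1×CAMHB, inoculum from saline suspension diluted 1:100; 35° C, 22–24 h; absorbance read-out.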

[2] = test system: Klebsiella pneumoniae expressing VIM-1 (IHMA599644); assay type: cell-based; details: VIM-1 strain IHMA599644, with imipenem 1 μg/ml, 95% inhibition of growth
Procedure, shortened: as §2

[3] = test system: Serratia marcescens expressing IMP-1 (CL5741); assay type: cell-based; details: IMP-1 strain CL5741, with imipenem 1 μg/ml, 95% inhibition of growth
Procedure, shortened: as §2

[4] = test system: Pseudomonas aeruginosa efflux+ (MB9798), IMP-1; assay type: cell-based; details: concentration restoring susceptibility to imipenem at 2 μg/mL in the presence of a class A, C, D serine β-lactamase inhibitor closely related to relebactam
Procedure, shortened: (§3)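 PAO1 pair, broth microdilution; fixed β-lactam (imipenem/ceftazidime) at ~CLSI breakpoint + fixed class A/C BLI for AmpC; serial MBLi titration; endpoint = MBLi conc. restoring susceptibility; MB9798:MB9799 ratio = efflux liability.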

[5] = test system: Pseudomonas aeruginosa efflux− (MB9799), IMP-1; assay type: cell-based; details: concentration restoring susceptibility to imipenem at 2 μg/mL in the presence of a class A, C, D serine β-lactamase inhibitor closely related to relebactam
Procedure, shortened: as §3

[6] = test system: Pseudomonas aeruginosa MB9798 vs MB9799; details: ratio MITC95 PA_9798/MITC95 PA_9799
Procedure, shortened: as §3

[7] = fluorescence assay, read-out: VIM-1 IC50

Sequence of IMP-1 (P52699 whole entry, looked up, species assumed): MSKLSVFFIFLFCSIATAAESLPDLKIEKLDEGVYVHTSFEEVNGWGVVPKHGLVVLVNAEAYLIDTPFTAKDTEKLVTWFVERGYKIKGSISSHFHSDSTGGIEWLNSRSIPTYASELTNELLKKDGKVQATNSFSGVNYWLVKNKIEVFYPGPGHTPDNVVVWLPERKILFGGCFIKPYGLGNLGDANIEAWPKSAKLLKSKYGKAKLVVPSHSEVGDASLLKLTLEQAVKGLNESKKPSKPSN

Row | Structure (SMILES) | pIC50 (IMP-1) | pIC50 (NDM-1) | pIC50 (VIM-1; VIM-1 IC50, fluorescence assay) | Escherichia coli MITC95 [1] | Klebsiella pneumoniae MITC95 [2] | Serratia marcescens MITC95 [3] | P. aeruginosa expressing IMP-1, efflux + (MB9798) MITC95 [4] | P. aeruginosa expressing IMP-1, efflux − (MB9799) MITC95 [5] | Efflux ratio [6] | pIC50 (VIM-1; [7])
1 | NCc1nc2c(-c3ccc(S(=O)(=O)N[C@@H]4CCNC4)c(S(N)(=O)=O)c3-c3nn[nH]n3)cccc2s1 [Example 276, (R)-4-(2-(aminomethyl)benzo[d]thiazol-4-yl)-N1-(pyrrolidin-3-yl)-3-(2H-tetrazol-5-yl)benzene-1,2-disulfonamide] | 9.27 | 10.25 | 10.06 | 1.172 µM | 0.7813 µM | 0.7813 µM | 0.7813 µM | 0.7813 µM | 1.00 | 
2 | Nc1cccc(-c2ccc(S(=O)(=O)N[C@@H]3CCNC3)c(S(N)(=O)=O)c2-c2nn[nH]n2)n1 [Example 277, (R)-4-(6-aminopyridin-2-yl)-N1-(pyrrolidin-3-yl)-3-(2H-tetrazol-5-yl)benzene-1,2-disulfonamide] | 8.90 | 9.83 |  | 0.7813 µM | 1.563 µM | 1.563 µM | 0.7813 µM | 0.7813 µM | 1.00 | 9.89
3 | NCc1ncc(-c2cccc(-c3ccc(S(=O)(=O)N[C@@H]4CCNC4)c(S(N)(=O)=O)c3-c3nn[nH]n3)c2)[nH]1 [Example 278, (R)-3′-(2-(aminomethyl)-1H-imidazol-5-yl)-N4-(pyrrolidin-3-yl)-2-(2H-tetrazol-5-yl)-[1,1′-biphenyl]-3,4-disulfonamide] | 9.19 | 10.25 | 9.84 | 0.7813 µM | 0.7813 µM | 0.7813 µM | 0.7813 µM | 0.7813 µM | 1.00 | 
4 | NCCn1nc2cccc(-c3ccc(S(=O)(=O)N[C@@H]4CCNC4)c(S(N)(=O)=O)c3-c3nn[nH]n3)c2n1 [Example 279, (R)-4-(2-(2-aminoethyl)-2H-benzo[d][1,2,3]triazol-4-yl)-N1-(pyrrolidin-3-yl)-3-(2H-tetrazol-5-yl)benzene-1,2-disulfonamide] | 8.52 | 9.63 | 9.88 | 0.7813 µM | 0.7813 µM | 0.7813 µM | 0.7813 µM | 0.7813 µM | 1.00 | 
5 | CNc1nc2c(-c3ccc(S(=O)(=O)N[C@@H]4CCNC4)c(S(N)(=O)=O)c3-c3nn[nH]n3)cccc2[nH]1 [Example 280, (R)-4-(2-(methylamino)-1H-benzo[d]imidazol-4-yl)-N1-(pyrrolidin-3-yl)-3-(2H-tetrazol-5-yl)benzene-1,2-disulfonamide] | 9.21 | 10.39 |  | 0.7813 µM | 1.563 µM | 0.7813 µM | 0.3906 µM | 0.7813 µM | 0.50 | 9.80
6 | Cn1nc2cccc(-c3ccc(S(=O)(=O)N[C@@H]4CCNC4)c(S(N)(=O)=O)c3-c3nn[nH]n3)c2n1 [Example 281, (R)-4-(2-methyl-2H-benzo[d][1,2,3]triazol-4-yl)-N1-(pyrrolidin-3-yl)-3-(2H-tetrazol-5-yl)benzene-1,2-disulfonamide] | 9.12 | 10.78 |  | 1.563 µM | 3.125 µM | 1.563 µM | 3.125 µM | 1.563 µM | 2.00 | 10.29
7 | NS(=O)(=O)c1c(S(=O)(=O)N[C@@H]2CCNC2)ccc(-c2cnc3cc[nH]c3c2)c1-c1nn[nH]n1 [Example 282, (R)-N1-(pyrrolidin-3-yl)-4-(1H-pyrrolo[3,2-b]pyridin-6-yl)-3-(2H-tetrazol-5-yl)benzene-1,2-disulfonamide] | 8.95 | 10.35 | 9.88 | 0.7813 µM | 1.563 µM | 0.7813 µM | 0.7813 µM | 0.7813 µM | 1.00 | 
8 | NCc1nc2c(-c3ccc(S(=O)(=O)N[C@@H]4CCNC4)c(S(N)(=O)=O)c3-c3nn[nH]n3)cccc2[nH]1 [Example 283, (R)-4-(2-(aminomethyl)-1H-benzo[d]imidazol-4-yl)-N1-(pyrrolidin-3-yl)-3-(2H-tetrazol-5-yl)benzene-1,2-disulfonamide] | 8.92 | 10.14 |  | 0.7813 µM | 1.172 µM | 0.6836 µM | 0.7813 µM | 0.7813 µM | 1.00 | 9.91
9 | Cc1ccc(-c2ccc(S(=O)(=O)N[C@@H]3CCNC3)c(S(N)(=O)=O)c2-c2nn[nH]n2)c2nc(N)[nH]c12 [Example 285, (R)-4-(2-amino-7-methyl-1H-benzo[d]imidazol-4-yl)-N1-(pyrrolidin-3-yl)-3-(2H-tetrazol-5-yl)benzene-1,2-disulfonamide] | 9.50 | 10.53 | 10.04 | 0.7813 µM | 0.7813 µM | 0.7813 µM | 0.3906 µM | 0.3906 µM | 1.00 | 
10 | Nc1ccc2cccc(-c3ccc(S(=O)(=O)N[C@@H]4CCNC4)c(S(N)(=O)=O)c3-c3nn[nH]n3)c2n1 [Example 286, (R)-4-(2-aminoquinolin-8-yl)-N1-(pyrrolidin-3-yl)-3-(2H-tetrazol-5-yl)benzene-1,2-disulfonamide] | 9.91 | 10.68 |  | 1.953 µM | 1.172 µM | 0.7813 µM | 0.9766 µM | 0.7813 µM | 1.25 | 10.06
